Data taken from ChEMBL document CHEMBL4806962, “Methods and Compositions for Treating Cancer” (2020).
The source made the active and inactive calls. No cut-off for these calls is given here.

Experiments:
[1] = Effects of compound on anti-CD3/CD28-stimulated human PBMCs assessed as CD4-positive cells population at 10 uM after 2 days by flow cytometric analysis; format: functional, PBMC; details: time 2 day
PBMC [2] = experiment: Effect of compound on human PBMCs assessed as reduction in CTLA4 expression in memory Treg cells after 1 day by flow cytometric analysis; format: functional, cell-based; details: dose 0.19-6 µM
Splenocyte [3] = experiment: Effects of compound on IL-2 production in anti-CD3/CD28-stimulated GPR174 knockdown mouse splenocytes assessed as increase in IL-2 levels at 10 uM after 48 hrs; format: functional, cell-based
[4] = molecular target: T1, Probable G-protein coupled receptor 174 (Homo sapiens, UniProt Q9BXC1); experiment: Antagonist activity at GPR174 (unknown origin) expressed in HEK293 cells assessed as inhibition of PS-induced GPR174 signaling incubated for 15 mins by GloSensor assay; format: functional, cell-based; details: filed as antagonist
T1 sequence (Q9BXC1 whole entry): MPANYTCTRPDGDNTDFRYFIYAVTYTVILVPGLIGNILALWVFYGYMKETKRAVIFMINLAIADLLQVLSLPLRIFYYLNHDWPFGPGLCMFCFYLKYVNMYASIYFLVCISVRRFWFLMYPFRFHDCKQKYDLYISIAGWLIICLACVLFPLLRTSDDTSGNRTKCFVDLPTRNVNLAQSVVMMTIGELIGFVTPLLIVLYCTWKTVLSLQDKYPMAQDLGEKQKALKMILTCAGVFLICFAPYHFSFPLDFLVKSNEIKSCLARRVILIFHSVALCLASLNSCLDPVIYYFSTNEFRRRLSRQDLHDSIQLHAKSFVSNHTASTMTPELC

CD4+ve Th = experiment: Reduction in AREG expression in human CD4-positive T-cells at 10 uM in presence of A2aR inhibitor ZM-241385; format: functional
[5] = molecular target: T1, Probable G-protein coupled receptor 174; experiment: Inverse agonist activity at GPR174 in anti-CD3/CD28-stimulated human PBMCs assessed as increase in FoxP3-positive Helios-negative T cells at 100 uM after 3 days by flow cytometric analysis; format: functional, tissue-based; details: PBMC, filed as inverse agonist, time 3.0 day
[6] = molecular target: T1, Probable G-protein coupled receptor 174; experiment: Inverse agonist activity at GPR174 in anti-CD3/CD28-stimulated human PBMCs assessed as reduction in FoxP3-positive Helios-positive nTreg cells at 30 uM after 7 days by flow cytometric analysis; format: functional, tissue-based; details: PBMC, filed as inverse agonist, time 7.0 day
PBMC [7] = experiment: Effects of compound on TNF-alpha production in anti-CD3/CD28-stimulated human PBMCs assessed as fold increase in TNF-alpha level at 30 uM after 2 days by ELISA; format: functional, tissue-based; details: time 2.0 day
PBMC [8] = experiment: Effects of compound on IL-10 production in anti-CD3/CD28-stimulated human PBMCs assessed as fold increase in IL-10 level at 30 uM after 2 days by ELISA; format: functional, tissue-based; details: time 2.0 day
PBMC [9] = experiment: Effect of compound on human PBMCs assessed as reduction in CTLA4 expression in memory non-Treg cells after 1 day by flow cytometric analysis; format: functional, cell-based; details: dose 0.19-6 µM
[10] = molecular target: T1, Probable G-protein coupled receptor 174; experiment: Antagonist activity at GPR174 (unknown origin) expressed in HEK293 cells assessed as inhibition of PS-induced GPR174 signaling at 1 to 2 uM incubated for 15 mins by GloSensor assay; format: functional, cell-based; design: scale not given: the % may be the effect or the level left; details: filed as antagonist, dose 1-2 µM
PBMC [11] = experiment: Effects of compound on IL-6 production in anti-CD3/CD28-stimulated human PBMCs assessed as fold increase in IL-6 level at 30 uM after 2 days by ELISA; format: functional, tissue-based; details: time 2.0 day
[12] = Induction of TNF production in anti-CD3/CD28-stimulated human PBMCs assessed as fold increase in TNF level at 1 uM after 24 hrs in presence of 0.75 ug/ml ADA by ELISA; format: functional, PBMC
PBMC [13] = experiment: Effects of compound on INF-gamma production in anti-CD3/CD28-stimulated human PBMCs assessed as fold increase in INF-gamma level at 30 uM after 2 days by ELISA; format: functional; details: time 2.0 day
PBMC [14] = experiment: Effects of compound on IL-2 production in anti-CD3/CD28-stimulated human PBMCs assessed as increase in IL-2 level at 30 uM after 2 days by ELISA; format: functional, tissue-based; details: time 2.0 day
PBMC [15] = experiment: Effects of compound on INF-gamma production in anti-CD3/CD28-stimulated human PBMCs assessed as increase in INF-gamma level after 2 days by ELISA; format: functional, tissue-based; details: dose 1-10 µM, time 2.0 day
[16] = Induction of IL-2 production in anti-CD3/CD28-stimulated human PBMCs assessed as fold increase in IL-2 level at 1 uM after 24 hrs in presence of 0.1 uM A2aR inhibitor PBF-509 by ELISA; format: functional, PBMC
[17] = molecular target: T1, Probable G-protein coupled receptor 174; experiment: Inverse agonist activity at GPR174 in anti-CD3/CD28-stimulated human PBMCs assessed as reduction in FoxP3-positive Helios-positive nTreg cells after 7 days by flow cytometric analysis; format: functional, tissue-based; details: PBMC, filed as inverse agonist, dose 3-30 µM, time 7.0 day
[18] = molecular target: T1, Probable G-protein coupled receptor 174; experiment: Inverse agonist activity at human GPR174 assessed as fold decrease in Gs signalling activity by CRA; format: functional; details: filed as inverse agonist
Splenocyte [19] = experiment: Effects of compound on IL-2 production in anti-CD3/CD28-stimulated wild-type mouse spleenocytes assessed as fold increase in IL-2 level at 0.3 to 1 uM after 2 days; format: functional; details: dose 0.3-1 µM; time 2 day
PBMC [20] = experiment: Effects of compound on IL-17A production in anti-CD3/CD28-stimulated human PBMCs assessed as fold decrease in IL-17A level at 30 uM after 2 days by ELISA; format: functional, tissue-based; details: time 2.0 day
[21] = Ratio of FC for induction of TNF production in anti-CD3/CD28-stimulated human PBMCs at 1 uM after 24 hrs in presence of PBF-509 and MRS-1754 to FC for induction of TNF production in anti-CD3/CD28-stimulated human PBMCs at 1 uM after 24 hrs in presence of PBF-509 and absence of MRS-1754; format: functional, PBMC
[22] = Effects of compound on anti-CD3/CD28-stimulated human PBMCs assessed as non-T cells population at 10 uM after 2 days by flow cytometric analysis; format: functional, PBMC; details: time 2 day
Splenocyte [23] = experiment: Effects of compound on IL-2 production in anti-CD3/CD28-stimulated GPR174 knock out mouse spleenocytes assessed as fold increase in IL-2 level at 0.3 uM after 2 days in presence of NECA; format: functional, cell-based; details: time 2.0 day
[24] = (§1) Ratio of FC for induction of INF-gamma production in anti-CD3/CD28-stimulated human PBMCs at 1 uM after 24 hrs in presence of PBF-509 and MRS-1754 to FC for induction of INF-gamma production in anti-CD3/CD28-stimulated human PBMCs at 1 uM after 24 hrs in presence of PBF-509 and absence of MRS-1754; format: functional, PBMC
[25] = as §1, with “ZM-241385” for “PBF-509”; format: functional, PBMC
[26] = Induction of TNF production in anti-CD3/CD28-stimulated human PBMCs assessed as fold increase in TNF level at 1 to 2 uM after 24 hrs in presence of A2aR inhibitor ZM-241385 by ELISA; format: functional, PBMC; details: dose 1-2 µM
[27] = Effects of compound on anti-CD3/CD28-stimulated human PBMCs assessed as CD8-positive cells population at 10 uM after 2 days by flow cytometric analysis; format: functional, PBMC; details: time 2 day
[28] = Effects of compound on anti-CD3/CD28-stimulated human PBMCs assessed as non-T cells population at 10 uM after 4 hrs by flow cytometric analysis; format: functional, PBMC

Activity [4]: Dose-Dependent Effect | Activity [5]: Active | Activity [6]: Active | Activity [10]: 100% | Activity [17]: Dose-Dependent Effect | fold change (FC) [18]: 0.2
Compound: CC1CCN(c2cc(N3CCN(S(=O)(=O)c4ccccc4)CC3)c([N+](=O)[O-])cc2F)CC1
Activity [1]: 31.8% | Activity (PBMC [2]): Dose-Dependent Effect | Activity (Splenocyte [3]): inactive | Activity (CD4+ve Th): Active | Activity (PBMC [7]): Active | Activity (PBMC [8]): Active | Activity (PBMC [9]): Dose-Dependent Effect | Activity (PBMC [11]): Active | fold change (FC) [12]: 1.9 | Activity (PBMC [13]): Active | Activity (PBMC [14]): Active | Activity (PBMC [15]): Dose-Dependent Effect | fold change (FC) [16]: 1.9 | fold change (FC) (Splenocyte [19]): 10 | Activity (PBMC [20]): Active | Ratio [21]: 1 | Activity [22]: 33.1% | Activity (Splenocyte [23]): inactive | Ratio [24]: 1 | Ratio [25]: 1 | fold change (FC) [26]: 8 | Activity [27]: 27.5% | Activity [28]: 33.9%
